Assay results: patent US20250136568A1, “FUSED HETEROCYCLIC COMPOUNDS AS PI3KALPHA INHIBITORS” (Nanjing Zenshine Pharmaceuticals Co., Ltd., priority 2021, published 2025)
Where two headings read alike, the source gives them in different places.

Assays:
Format in all cases: cell-based
[1] = tested on: PI3Kα wide type cell line SK-BR-3; assay: Cell Proliferation IC50 Assay (CellTiter-Glo), SK-BR-3; conditions: SK-BR-3 (PI3Kα wild type), 72 hours, CellTiter-Glo, read-out: IC50 (μM) SK-BR-3
In short: (§1)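 Cells were seeded and left overnight, then exposed to serially diluted compound (200-fold final dilution) for 72 h at 37 °C, 5% CO2. Viability was read by CellTiter-Glo luminescence. Percent inhibition and IC50 were calculated from the signal.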

[2] = tested on: PI3Kα H1047R mutation cell line MDA-MB-453; assay: Cell Proliferation IC50 Assay (CellTiter-Glo), MDA-MB-453; conditions: read-out: IC50 (μM) MDA-MB-453
Description: PI3Kα H1047R mutation cell line T-47D and MDA-MB-453, E545K mutation cell line MDA-MB-361 and PI3Kα wide type cell line SK-BR-3 were purchased from Cobioer Biotech (cat. no CBP60397, CBP60386, CBP60383 and CBP60413 respectively). The CellTiter-Glo Direct Cell Proliferation Assay Kit was purchased from Prornega (cat. No. G7573)
For cell proliferation assay in each cell line: • a. Prepare complete medium (R PMI 1640, DMEM or McCoys): Add FBS and appropriate additives according to the information sheet provided by the vendor. Mix gently. • b. Prepare single cell suspension and count the cell numbers and adjust cells to appropriate density. • c. Add 80 μL of cell suspension to 96-well opaque-walled clear bottom plates according to the planned plate layout and place the plates in the CO2 incubator overnight. • d. Prepare intermediate plate: 10 μl of diluted test compounds or staurosporine solution (200×) is added to a 96 deep well plate. Then 390 μl of culture medium without FBS is added to the respective wells. • e. Transfer 20 μL of the solutions from the above intermediate plate to the wells of the plate prepared containing 80 μL of the culture medium and cells. The total dilution is 200 folds. • f. The cells were then incubated at 5% CO2, 37° C. for 72 hours. • g. Equilibrate the plate and its contents to room temperature for approximately 30 minutes. • h. Add 100 μL of CellTiter-Glo reagent to the assay plate • i. Mix contents for 10 minutes on an orbital shaker to induce cell lysis. • j. Allow the plate to incubate at room temperature for 10 minutes to stabilize luminescent signal, • k. Paste the clear bottom with white back seal and record luminescence with Varioskan LUX plate reader.
Inhibition % and IC50 value were calculated by the formula described below: […]

[3] = tested on: PI3Kα H1047R mutation cell line T-47D; assay: Cell Proliferation IC50 Assay (CellTiter-Glo), T-47D; conditions: T47D (H1047R), 72 hours, CellTiter-Glo, read-out: IC50 (μM) T47D
In short: as §1

[4] = Homo sapiens, MDA-MB-453 (H1047R), 72 hours, CellTiter-Glo

| SMILES | IC50 ([1]; Homo sapiens) [µM] | IC50 [2, 4] [µM] | IC50 ([3]; Homo sapiens, T47D, 72 h) [µM] | IC50 [1] [µM] | IC50 ([2]; MDA-MB-453 (H1047R), 72 hours, CellTiter-Glo) [µM] | IC50 [3] [µM] | IC50 ([2]; Homo sapiens, MDA-MB-453, 72 h) [µM] | IC50 ([3]; Homo sapiens) [µM] |
| --- | --- | --- | --- | --- | --- | --- | --- | --- |
| Cc1cc([C@@H](C)Nc2ccccc2C(=O)O)c2oc(-c3ccc(N4CCOCC4)cc3)c(C)c(=O)c2c1 (single isomer, unassigned) [Example 53A] | > 10 | 0.12 | 0.09 | – | – | – | – | – |
| Cc1cc([C@H](C)Nc2ccccc2C(=O)O)c2oc(-c3ccc4nn(C)cc4c3)cc(=O)c2c1 [Example 38A, (S)-2-((1-(6-methyl-2-(2-menthyl-2H-indazol-5-yl)-4-oxo-411-chromen-8-yl)ethyl)amino)benzoic acid] | – | – | – | > 10 | > 10 | > 10 | – | – |
| Cc1cc(C(C)Nc2ccccc2C(=O)O)c2oc(-c3cccnc3)cc(=O)c2c1 (stereo not shown) [Example 32, 2-((1-(6-methyl-4-oxo-2-(pyridin-3-yl)-4H-chromen-8-yl)ethyl)amino)benzoic acid] | > 10 | 1.38 | 0.75 | – | – | – | – | – |
| Cc1ccc(-c2cc(=O)c3cc(C)cc(C(C)Nc4ccccc4C(=O)O)c3o2)cc1 (stereo not shown) [Example 2, 2-((1-(6-methyl-4-oxo-2-(p-tolyl)-4H-chromen-8-yl)ethyl)amino)benzoic acid] | > 10 | 0.39 | 0.16 | – | – | – | – | – |
| Cc1cc(C(C)Nc2ccccc2S(N)(=O)=O)c2oc(-c3ccc4nn(C)cc4c3)c(C)c(=O)c2c1 (stereo not shown) [Example 131, 2-((1-(3,6-dimethyl-2-(2-methyl-2H-indazol-5-yl)-4-oxo-4H-chromen-8-yl)ethyl)amino)benzenesulfonamide] | > 10 | – | – | – | – | – | 0.059 | 0.055 |
| Cc1cc(C(C)Nc2ccccc2C(=O)O)c2oc(-c3ccc4c(c3)CN(C)C4=O)c(C)c(=O)c2c1 (stereo not shown) [Example 20, 2-((1-(3,6-dimethyl-2-(2-methyl-1-oxoisoindolin-5-yl)-4-oxo-4H-chromen-8-yl)ethyl)amino)benzoic acid] | > 10 | 0.18 | 0.12 | – | – | – | – | – |
| Cc1cc(C(C)Nc2ccccc2C(=O)O)c2oc(C3CCN(C(=O)OC(C)(C)C)CC3)cc(=O)c2c1 (stereo not shown) [Example 13, 2-((1-(2-(1-(tert-butoxycarbonyl)piperidin-4-yl)-6-methyl-4-oxo-4H-chromen-8-yl)ethyl)amino)benzoic acid] | > 10 | 2.29 | 1.33 | – | – | – | – | – |
| Cc1cc(C(C)Nc2ccccc2C(=O)O)c2oc(-c3ccc4c(cnn4C)c3)cc(=O)c2c1 (stereo not shown) [Example 37, 2-((1-(6-methyl-2-(1-methyl-1H-indazol-5-yl)-4-oxo-4H-chromen-8-yl)ethyl)amino)benzoic acid] | > 10 | 0.8 | 0.42 | – | – | – | – | – |
| Cc1cc(C(C)Nc2ccccc2C(=O)O)c2oc(-c3ccc4c(c3)OCO4)cc(=O)c2c1 (stereo not shown) [Example 4, 2-((1-(2-(benzo[d][1,3]dioxol-5-yl)-6-methyl-4-oxo-4H-chromen-8-yl)ethyl)amino)benzoic acid] | > 10 | 0.75 | 0.56 | – | – | – | – | – |
| Cc1cc(C(C)Nc2ccccc2C(=O)O)c2oc(C3CCN(C(=O)C(F)(F)F)CC3)cc(=O)c2c1 (stereo not shown) [Example 29, 2-((1-(6-methyl-4-oxo-2-(1-(2,2,2-trifluoroacetyl)piperidin-4-yl)-4H-chromen-8-yl)ethyl)amino)benzoic acid] | > 10 | > 10 | 4.13 | – | – | – | – | – |
| Cc1cc(C(C)Nc2ccccc2C(=O)O)c2oc(-c3cc4ccccc4[nH]3)cc(=O)c2c1 (stereo not shown) [Example 25, 2-((1-(2-(1H-indol-2-yl)-6-methyl-4-oxo-4H-chromen-8-yl)ethyl)amino)benzoic acid] | > 10 | 0.32 | 0.27 | – | – | – | – | – |
| Cc1cc([C@@H](C)Nc2ccccc2C(=O)O)c2oc(-c3ccc4c(c3)CN(C)C4=O)c(C)c(=O)c2c1 (single isomer, unassigned) [Example 20B] | > 10 | 0.07 | 0.048 | – | – | – | – | – |
| Cc1cc(C(C)Nc2ccccc2C(=O)O)c2oc(-c3cnn(CC(C)(C)O)c3)cc(=O)c2c1 (stereo not shown) [Example 11, 2-((1-(2-(1-(2-hydroxy-2-methylpropyl)-1H-pyrazol-4-yl)-6-methyl-4-oxo-4H-chromen-8-yl)ethyl)amino)benzoic acid] | > 10 | 2.49 | 1.98 | – | – | – | – | – |
| Cc1cc(C(C)Nc2ccccc2C(=O)O)c2oc(-c3cnn(C)c3)cc(=O)c2c1 (stereo not shown) [Example 10, 2-((1-(6-methyl-2-(1-methyl-1H-pyrazol-4-yl)-4-oxo-4H-chromen-8-yl)ethyl)amino)benzoic acid] | > 10 | 2.44 | 0.86 | – | – | – | – | – |
| Cc1cc(C(C)Nc2ccccc2C(=O)O)c2oc(-c3ccc(C(=O)N4CCOCC4)cc3)c(C)c(=O)c2c1 (stereo not shown) [Example 129, 2-((1-(3,6-dimethyl-2-(4-(morpholine-4-carbonyl)phenyl)-4-oxo-4H-chromen-8-yl)ethyl)amino)benzoic acid] | > 10 | 0.26 | – | – | – | – | – | – |
| Cc1cc(C(C)Nc2ccccc2C(=O)O)c2oc(-c3ccc4nn(C)nc4c3)cc(=O)c2c1 (stereo not shown) [Example 69, 2-((1-(6-methyl-2-(2-methyl-2H-benzo[d][1,2,3]triazol-5-yl)-4-oxo-4H-chromen-8-yl)ethyl)amino)benzoic acid] | > 10 | 1.06 | – | – | – | – | – | – |

The next lines start with results.

| IC50 ([1]; Homo sapiens) [µM] | IC50 [2, 4] [µM] | IC50 ([3]; Homo sapiens, T47D, 72 h) [µM] | SMILES | IC50 [1] [µM] | IC50 ([2]; MDA-MB-453 (H1047R), 72 hours, CellTiter-Glo) [µM] | IC50 [3] [µM] | IC50 ([2]; Homo sapiens, MDA-MB-453, 72 h) [µM] | IC50 ([3]; Homo sapiens) [µM] |
| --- | --- | --- | --- | --- | --- | --- | --- | --- |
| > 10 | > 10 | > 10 | Cc1cc([C@H](C)Nc2ccccc2C(=O)O)c2oc(-c3ccc4c(c3)CN(C)C4=O)c(C)c(=O)c2c1 (single isomer, unassigned) [Example 20A] | – | – | – | – | – |
| > 10 | 0.15 | 0.08 | Cc1cc(C(C)Nc2ccccc2C(=O)O)c2oc(-c3ccc4nn(C)cc4c3)cc(=O)c2c1 (stereo not shown) [Example 38] | – | – | – | – | – |
| 5.07 | 0.63 | 0.72 | Cc1cc(C(C)Nc2ccc(Cl)nc2C(=O)O)c2oc(-c3ccc4c(c3)CN(C)C4=O)c(C)c(=O)c2c1 (stereo not shown) [Example 22, 6-chloro-3-((1-(3,6-dimethyl-2-(2-methyl-1-oxoisoindolin-5-yl)-4-oxo-4H-chromen-8-yl)ethyl)amino)picolinic acid] | – | – | – | – | – |
| > 10 | 0.29 | 0.23 | Cc1cc(C(C)Nc2ccccc2C(=O)O)c2oc(-c3ccc4c(c3)CN(C)C4=O)cc(=O)c2c1 (stereo not shown) [Example 6, 2-((1-(6-methyl-2-(2-methyl-1-oxoisoindolin-5-yl)-4-oxo-4H-chromen-8-yl)ethyl)amino)benzoic acid] | – | – | – | – | – |
| > 10 | 0.089 | 0.058 | Cc1cc([C@@H](C)Nc2ccccc2C(=O)O)c2oc(-c3ccc(Cc4cnn(C)c4)cc3)c(C)c(=O)c2c1 [Example 151, 2-[[(1R)-1-[3,6-dimethyl-2-[4-[(1-methylpyrazol-4-yl)methyl]phenyl]-4-oxo-chromen-8-yl]ethyl]amino]benzoic acid] | – | – | – | – | – |
| > 10 | 6.3 | 3.2 | Cc1cc(C(C)Nc2ccccc2C(=O)O)c2oc(-c3ccc4c(c3)C(=O)N(C)C4)cc(=O)c2c1 (stereo not shown) [Example 23, 2-((1-(6-methyl-2-(2-methyl-3-oxoisoindolin-5-yl)-4-oxo-4H-chromen-8-yl)ethyl)amino)benzoic acid] | – | – | – | – | – |
| > 10 | 0.7 | 0.33 | Cc1cc(C(C)Nc2ccccc2C(=O)O)c2oc(-c3ccccc3)cc(=O)c2c1 (stereo not shown) [Example 1, 2-((1-(6-methyl-4-oxo-2-phenyl-4H-chromen-8-yl)ethyl)amino)benzoic acid] | – | – | – | – | – |
